Laboratory results reported in patent US20080063723A1, “ISOTHIAZOLIN-3-ONE-CONTAINING ANTIMICROBIAL COMPOSITION” (priority 2006, published 2008).

Columns and labels:
Format in all cases: cell-based
Aspergillus sp = assay: Mold growth on treated Southern Yellow Pine wood samples, Aspergillus
Description: (§1) To determine the effectiveness of compositions containing an alkyl amine in combination with OIT and/or BBIT, such compositions were compared to compositions containing only an alkyl amine or compositions containing only OIT or BBIT. The efficacy of those compositions was shown by applying the compositions to Southern Yellow Pine (SYP) wood samples.
(§2) After the SYP samples were treated with the particular composition to be evaluated, the samples were placed onto a support in an extra depth Petri-dish.
(§3) A fungal spore suspension of two common mold species (Aspergillus and Fusarium) was spread on top of the wood sample. Fungal hyphal growth on the surface of samples was examined under the microscope once every week. The scale based on mycelial coverage of wood surface is as follows:
(§4) To evaluate the effectiveness of the compositions against common species of mold, compositions containing various levels of BBIT, OIT and C12-alkyl amine or a mixture of these components were tested on SYP wood blocks using the testing protocol discussed above. Specifically, compositions shown in Table 2A were applied to the wood blocks to determine anti-fungal efficacy of the compositions.
(§5) It is noted that compositions containing OIT and C12-alkyl amine were obtained by mixing compositions A0 and B0 in the recited ratio. Likewise, compositions containing BBIT and C12-alkyl amine were obtained by mixing compositions A0and C0.

Fusarium sp = assay: Mold growth on treated Southern Yellow Pine wood samples, Fusarium
Description: as §1, §2, §3, §4, §5

[1] = test system: two common mold species (Aspergillus and Fusarium); assay: Mold control on treated wood, overall statements for both molds
Description: as §1, §2, §3, §4
It is noted that compositions containing OIT and C12-alkyl amine were obtained by mixing compositions A0 and B0 in the recited ratio. […]

In the case of `CCCCn1sc2ccccc2c1=O` [BBIT alone, N-n-butyl-1,2-benzisothiazolin-3-one], the “Aspergillus sp mycelial coverage” value (Aspergillus sp; ratio 1:0, 80 ppm, 1 week) is reported as 0 (0%), the “Aspergillus sp mycelial coverage” value (Aspergillus sp; ratio 1:0, 80 ppm, 2 weeks) is reported as 0 (0%) and the “Aspergillus sp mycelial coverage” value (Aspergillus sp; ratio 1:0, 80 ppm, 3 weeks) is reported as 0 (0%). For the same compound, the “Aspergillus sp mycelial coverage” value (Aspergillus sp; ratio 1:0, 80 ppm, 4 weeks) was 1 (<10%), the “Fusarium sp mycelial coverage” value (Fusarium sp; ratio 1:0, 80 ppm, 1 week) was 0 (0%) and the “Fusarium sp mycelial coverage” value (Fusarium sp; ratio 1:0, 80 ppm, 2 weeks) was 0 (0%). The “Fusarium sp mycelial coverage” value (Fusarium sp; ratio 1:0, 80 ppm, 3 weeks) was 1 (<10%), the “Fusarium sp mycelial coverage” value (Fusarium sp; ratio 1:0, 80 ppm, 4 weeks) was 1 (<10%) and the “performance as a moldicide” value ([1]; concentration of 80 ppm) was “performed effectively as a moldicide”.

For `CCCCCCCCCCCCN(C)C` [C12-alkyl amine alone], the “Aspergillus sp mycelial coverage” value (Aspergillus sp; Table 4, 1000 ppm, 1 week) was 0 (0%), the “Aspergillus sp mycelial coverage” value (Aspergillus sp; Table 4, 1000 ppm, 2 weeks) was 2 (˜10-30%) and the “Aspergillus sp mycelial coverage” value (Aspergillus sp; Table 4, 1000 ppm, 3 weeks) was 3 (˜30-60%). For the same compound, the “Aspergillus sp mycelial coverage” value (Aspergillus sp; Table 4, 1000 ppm, 4 weeks) was 3 (˜30-60%), the “Aspergillus sp mycelial coverage” value (Aspergillus sp; ratio 0:1, 1000 ppm, 1 week) was 0 (0%) and the “Aspergillus sp mycelial coverage” value (Aspergillus sp; ratio 0:1, 1000 ppm, 2 weeks) was 2 (˜10-30%). The “Aspergillus sp mycelial coverage” value (Aspergillus sp; ratio 0:1, 1000 ppm, 3 weeks) was 3 (˜30-60%), the “Aspergillus sp mycelial coverage” value (Aspergillus sp; ratio 0:1, 1000 ppm, 4 weeks) was 3 (˜30-60%) and the “performance as a moldicide” value (Aspergillus sp; used alone, 1000 ppm, against Aspergillus) was “less effective”. The “Fusarium sp mycelial coverage” value (Fusarium sp; Table 4, 1000 ppm, 1 week) was 0, 0, 0, 0 (0%), the “Fusarium sp mycelial coverage” value (Fusarium sp; Table 4, 1000 ppm, 2 weeks) was 0, 0, 0, 0 (0%) and the “Fusarium sp mycelial coverage” value (Fusarium sp; Table 4, 1000 ppm, 3 weeks) was 0, 0, 0, 0 (0%). For the same compound, the “Fusarium sp mycelial coverage” value (Fusarium sp; Table 4, 1000 ppm, 4 weeks) was 0, 0, 0, 0 (0%), the “Fusarium sp mycelial coverage” value (Fusarium sp; ratio 0:1, 1000 ppm, 1 week) was 0, 0, 0, 0 (0%) and the “Fusarium sp mycelial coverage” value (Fusarium sp; ratio 0:1, 1000 ppm, 2 weeks) was 0, 0, 0, 0 (0%). For the same compound, the “Fusarium sp mycelial coverage” value (Fusarium sp; ratio 0:1, 1000 ppm, 3 weeks) was 0, 0, 0, 0 (0%), the “Fusarium sp mycelial coverage” value (Fusarium sp; ratio 0:1, 1000 ppm, 4 weeks) was 0, 0, 0, 0 (0%) and the “performance as a moldicide” value (Fusarium sp; used alone, 1000 ppm, against Fusarium) was “performed effectively as a moldicide”.

For `CCCCCCCCn1sccc1=O` [OIT alone, 2-n-octyl-4-isothiazolin-3-one], the “Aspergillus sp mycelial coverage” value (Aspergillus sp; ratio 1:0, 100 ppm, 1 week) was 0 (0%), the “Aspergillus sp mycelial coverage” value (Aspergillus sp; ratio 1:0, 100 ppm, 2 weeks) was 0 (0%) and the “Aspergillus sp mycelial coverage” value (Aspergillus sp; ratio 1:0, 100 ppm, 3 weeks) was 1 (<10%). For the same compound, the “Aspergillus sp mycelial coverage” value (Aspergillus sp; ratio 1:0, 100 ppm, 4 weeks) was 1 (<10%), the “Fusarium sp mycelial coverage” value (Fusarium sp; ratio 1:0, 100 ppm, 1 week) was 0, 0, 0, 0 (0%) and the “Fusarium sp mycelial coverage” value (Fusarium sp; ratio 1:0, 100 ppm, 2 weeks) was 0, 0, 0, 0 (0%). For the same compound, the “Fusarium sp mycelial coverage” value (Fusarium sp; ratio 1:0, 100 ppm, 3 weeks) was 0, 0, 0, 0 (0%), the “Fusarium sp mycelial coverage” value (Fusarium sp; ratio 1:0, 100 ppm, 4 weeks) was 0, 0, 0, 0 (0%) and the “performance as a moldicide” value ([1]; concentration of 100 ppm) was “performed effectively as a moldicide”.
